According to US9278925B2, “Substituted 3-(biphenyl-3-yl)-4-hydroxy-8-methoxy-1-azaspiro[4.5]dec-3-en-2-one” (BAYER INTELLECTUAL PROPERTY GMBH, priority 2011, dated 2016):
pKd: −log10 of the molar value.

Assays:
[1] = Octanol/water distribution coefficient (logP/D), isocratic HPLC method; assay type: physicochemical; conditions: for chromatographic logP: octanol/water, pH 7.4, pH7.4
Description: Assay for Determining the Octanol/Water Distribution Coefficient (logP/D): The distribution coefficient octanol/water P or D is a key parameter for estimating membrane penetration and permeability. It is defined as the ratio of the equilibrium concentrations of a substance in the two-phase system octanol/water. [formula] P=partition D=distribution c(octanol)=concentration of the substance in the octanol phase c(water)=concentration of the substance in the aqueous phase It is usually stated in form of the decadic logarithm (logP or logD). logP describes the distribution behaviour of a substance exclusively present in its neutral form. logD describes the distribution behaviour of a substance at a certain pH; depending on the ionisation constant pKa of the substance, some of the substance may be present in ionic form, and some in neutral form. The logP/D of the active compounds was determined using an isocratic HPLC method (HPLC=high performance liquid chromatography) (literature: OECD Guideline for Testing of Chemicals No. 117). The method is based on the correlation of the HPLC retention time of the test substance to that of reference substances with known distribution coefficients. […] The nine reference substances were dissolved individually in methanol. 100 μl each of the stock solutions were added to an HPLC vial and mixed with 300 μl of water. [table] A formamide solution was used to determine the hold-up time. To this end, 7 mg of formamide were dissolved in 10 ml of methanol. 100 μl of this stock solution were mixed with 500 μl of methanol and 200 μl of water. […] [table] [table] Injection Protocol: formamide, references, test substance 1, test substance 2, . . . , formamide, references. Evaluation of the retention times was carried out in a diode array detector (DAD) at 200-400 nm Via the molecular mass, the identity of the test substance was checked using the downstream mass spectrometer. The HPLC run was evaluated using the Waters software Masslynx 4.1. The logP/D values were calculated using the software “POW Determination” (proprietary development).

[2] = target: human serum albumin (HSA) (Homo sapiens (Human), UniProt P02768); test: Protein binding to human serum albumin (HSA-Transil); conditions: buffer pH 7.4
human serum albumin (HSA), sequence (P02768 25-609): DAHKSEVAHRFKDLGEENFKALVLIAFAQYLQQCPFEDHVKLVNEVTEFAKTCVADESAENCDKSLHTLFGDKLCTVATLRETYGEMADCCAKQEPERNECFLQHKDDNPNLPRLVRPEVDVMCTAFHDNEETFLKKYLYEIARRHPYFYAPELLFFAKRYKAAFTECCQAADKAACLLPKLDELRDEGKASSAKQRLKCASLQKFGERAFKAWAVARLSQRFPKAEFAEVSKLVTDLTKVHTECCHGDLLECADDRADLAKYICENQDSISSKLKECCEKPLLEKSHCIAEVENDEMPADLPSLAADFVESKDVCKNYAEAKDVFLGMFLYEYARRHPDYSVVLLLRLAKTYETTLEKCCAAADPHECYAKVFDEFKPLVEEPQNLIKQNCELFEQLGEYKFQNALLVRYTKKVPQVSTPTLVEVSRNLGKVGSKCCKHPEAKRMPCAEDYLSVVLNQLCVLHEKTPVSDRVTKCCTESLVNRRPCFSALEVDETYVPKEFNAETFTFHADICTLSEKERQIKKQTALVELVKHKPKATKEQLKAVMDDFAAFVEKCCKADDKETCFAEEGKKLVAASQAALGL
Protocol: Assays for Determining Membrane Affinity logMA and Protein Binding to Human Serum Albumin (HSA): Determination of membrane affinity and protein binding to human serum albumin (HSA) was carried out via Transil technology (literature: A. Loidl-Stahlhofen, A. Eckert, T. Hartmann, M. […] Pharm Sci 90, 599-606 (2001)). Transil® (commercially available from Sovicell in Leipzig, Germany) are glass beads (diameter 10-12 μm) coated with a double-layer membrane of phosphatidylcholine (MA-Transil) or covalently attached human serum albumin (HSA-Transil). To determine the logMA and the protein binding constant to HSA, the commercially available TRANSIL Intestinal Absorption & HSA Binding Combined Assay Kit was used. This is a 96-well microtitre plate (96 well-MTP) which is filled with Transil and can be used to determine MA-Transil and HSA-Transil binding of in each case eight active compounds. […] Two wells serve as reference and are only filled with buffer pH 7.4. Five further wells contain MA-Transil in various increasing concentrations, the five remaining wells contain HSA-Transil in various increasing concentrations. To determine binding of an active compound to Transil, the supernatant of the wells with Transil was quantified against the reference solution without Transil via HPLC-MS coupling (HPLC-MS=high performance liquid chromatography/mass spectrometry). This is how the individual steps of the assay were carried out: From the internal substance store, the active compounds were delivered in a 96-well MTP. This plate is referred to as mother plate. […] Warfarin, whose membrane affinity and binding to HSA is known, serves to check whether the measurement is correct. […] Using a Hamilton pipetting robot Microlab STAR, the 96 active compounds from the daughter plate were divided onto 12 Transil plates in total. From each well of the daughter plate, 12 times 20 μl were removed. The concentration of each well of the Transil plate was 0.25 μmol/liter, which corresponds to a dilution of 1 to 10. […] The filled Transil plates were each resuspended for two minutes, then allowed to stand at room temperature for at least two minutes and then centrifuged at 600 rotations per minute for five minutes. The pipetting robot was then used to remove 20 μl of supernatant from each well of the Transil plate and to transfer these to a separate microtitre plate. […] Prior to quantification of the active compounds by HPLC-MS, an optimization has to be carried out for each active compound where by way of a single injection daughter ion and optimum electrical voltages are determined. […] This microtitre plate was measured by HPLC-MS using the software Discovery Quant Optimize from AB Sciex. The three pooled microtitre plates were measured by HPLC-MS using the software Discovery Quant Analyze from AB Sciex. • Sciex Triple Quad 5500 mass spectrometer (from AB Sciex) • PAL Autosampler DLW Option Software: Analyst 1.4 (from AB Sciex) • Discovery Quant Optimize (from AB Sciex) • Discovery Quant Analyze (from AB Sciex) Optimization: […] Column: Poroshell 120 SB-C18 2.7 μm 3×30 mm Injection volume: 2 μl Flow rate: 1 ml/min: […] Evaluation of the HPLC peaks was carried out using Discovery Quant Analyze. The results (logMA and binding constant to HSA Kd) were calculated using an Excel workbook provided by Sovicell.

## CO[C@]1(C(F)(F)F)CC[C@]2(CC1)NC(=O)C(c1cc(-c3ccc(Cl)cc3)ccc1C)=C2O [Example 1-1, (5r,8r)-3-(4′-Chloro-4-methylbiphenyl-3-yl)-4-hydroxy-8-methoxy-8-(trifluoromethyl)-1-azaspiro[4.5]dec-3-en-2-one]
[1]
  chromatographic logP: 2.44
[2]
  pKd: 5.76

## CO[C@]1(C(F)(F)F)CC[C@]2(CC1)NC(=O)C(c1cc(-c3ccc(Cl)c(F)c3)ccc1C)=C2O [Example 1-2, (5r,8r)-3-(4′-Chloro-3′-fluoro-4-methylbiphenyl-3-yl)-4-hydroxy-8-methoxy-8-(trifluoromethyl)-1-azaspiro[4.5]dec-3-en-2-one]
[1]
  chromatographic logP: 2.45
[2]
  pKd: 5.75

## COC[C@]1(OC)CC[C@@]2(CC1)NC(=O)C(c1cc(-c3ccc(Cl)cc3)ccc1C)=C2O [Example 1-3, (5r,8r)-3-(4′-Chloro-4-methylbiphenyl-3-yl)-4-hydroxy-8-methoxy-8-(methoxymethyl)-1-azaspiro[4.5]dec-3-en-2-one]
[1]
  chromatographic logP: 2.3
[2]
  pKd: 5.32

## COC[C@]1(OC)CC[C@@]2(CC1)NC(=O)C(c1cc(-c3ccc(Cl)c(F)c3)ccc1C)=C2O [Example 1-4, (5r,8r)-3-(4′-Chloro-3′-fluoro-4-methylbiphenyl-3-yl)-4-hydroxy-8-methoxy-8-(methoxymethyl)-1-azaspiro[4.5]dec-3-en-2-one]
[1]
  chromatographic logP: 2.38
[2]
  pKd: 5.55

## CO[C@]1(C)CC[C@]2(CC1)NC(=O)C(c1cc(-c3ccc(Cl)cc3)ccc1C)=C2O [Example V.1-a, (5r,8r)-3-(4′-Chloro-4-methylbiphenyl-3-yl)-4-hydroxy-8-methoxy-8-methyl-1-azaspiro[4.5]dec-3-en-2-one]
[1]
  logP/D pH7.4: 2.51
[2]
  pKd: 5.32

## CO[C@]1(C)CC[C@]2(CC1)NC(=O)C(c1cc(-c3ccc(Cl)c(F)c3)ccc1C)=C2O [Example V.2-a, (5r,8r)-3-(4′-Chloro-3′-fluoro-4-methylbiphenyl-3-yl)-4-hydroxy-8-methoxy-8-methyl-1-azaspiro[4.5]dec-3-en-2-one]
[1]
  logP/D pH7.4: 2.52
[2]
  pKd: 5.55

## Cc1ccc(-c2ccc(Cl)cc2)cc1C1=C(O)[C@]2(CC[C@](O)(C(F)(F)F)CC2)NC1=O [V.1-c, (5r,8r)-3-(4′-Chloro-4-methylbiphenyl-3-yl)-4,8-dihydroxy-8-(trifluoromethyl)-1-azaspiro[4.5]dec-3-en-2-one]
[1]
  chromatographic logP: 1.6
[2]
  pKd: 5.16

## Cc1ccc(-c2ccc(Cl)c(F)c2)cc1C1=C(O)[C@]2(CC[C@](O)(C(F)(F)F)CC2)NC1=O [V.2-c, (5r,8r)-3-(4′-Chloro-3′-fluoro-4-methylbiphenyl-3-yl)-4,8-dihydroxy-8-(trifluoromethyl)-1-azaspiro[4.5]dec-3-en-2-one]
[1]
  chromatographic logP: 1.3
[2]
  pKd: 5.86

## COC[C@H]1CC[C@]2(CC1)NC(=O)C(c1cc(-c3ccc(Cl)cc3)ccc1C)=C2O [V.3-b, (5s,8s)-3-(4′-Chloro-4-methylbiphenyl-3-yl)-4-hydroxy-8-(methoxymethyl)-1-azaspiro[4.5]dec-3-en-2-one]
[1]
  chromatographic logP: 2.5
[2]
  pKd: 5.38

## COC[C@H]1CC[C@]2(CC1)NC(=O)C(c1cc(-c3ccc(Cl)c(F)c3)ccc1C)=C2O [V.4-b, (5s,8s)-3-(4′-Chloro-3′-fluoro-4-methylbiphenyl-3-yl)-4-hydroxy-8-(methoxymethyl)-1-azaspiro[4.5]dec-3-en-2-one]
[1]
  chromatographic logP: 2.57
[2]
  pKd: 5.44
